Publication PMC7252619 (PLoS ONE, 2020)
Where two headings read alike, the source gives them in different places.

Columns and labels:
Experiment in all cases: Kinase activity test (ReactionBiology), % enzyme activity relative to DMSO;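 on remaining activity: FDA-approved drugs chosen by structure-based repositioning, each screened at 10 or 1 µM for kinase activity, expressed as percent of DMSO controls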
Assay type in all cases: biochemical
CK1d = molecular target: T1, CK1d (Homo sapiens, UniProt P48730); details: CK1d; for % Enzyme Activity (relative to DMSO controls), Data 1: replicate Data 1; for % Enzyme Activity (relative to DMSO controls), Data 2: replicate Data 2
T1 construct: purchased ReactionBiology
T1 sequence (P48730 whole entry): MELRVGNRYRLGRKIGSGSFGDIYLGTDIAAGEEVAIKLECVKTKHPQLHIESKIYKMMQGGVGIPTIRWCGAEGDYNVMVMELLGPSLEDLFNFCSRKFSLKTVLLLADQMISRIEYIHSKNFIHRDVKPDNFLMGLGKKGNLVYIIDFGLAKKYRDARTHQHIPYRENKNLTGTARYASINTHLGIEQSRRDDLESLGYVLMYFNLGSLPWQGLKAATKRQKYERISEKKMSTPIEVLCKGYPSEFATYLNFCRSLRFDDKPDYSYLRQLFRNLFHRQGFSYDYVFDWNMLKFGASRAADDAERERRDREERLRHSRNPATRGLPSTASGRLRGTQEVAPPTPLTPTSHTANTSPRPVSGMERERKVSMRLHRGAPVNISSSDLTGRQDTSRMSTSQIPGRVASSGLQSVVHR

NEK2 = molecular target: T2, NEK2 (Homo sapiens, UniProt P51955); details: NEK2;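 further: FDA-approved drugs chosen by structure-based repositioning, each screened at 10 or 1 µM for kinase activity, expressed as percent of DMSO controls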
T2 construct: purchased ReactionBiology
T2 sequence (P51955 1-445): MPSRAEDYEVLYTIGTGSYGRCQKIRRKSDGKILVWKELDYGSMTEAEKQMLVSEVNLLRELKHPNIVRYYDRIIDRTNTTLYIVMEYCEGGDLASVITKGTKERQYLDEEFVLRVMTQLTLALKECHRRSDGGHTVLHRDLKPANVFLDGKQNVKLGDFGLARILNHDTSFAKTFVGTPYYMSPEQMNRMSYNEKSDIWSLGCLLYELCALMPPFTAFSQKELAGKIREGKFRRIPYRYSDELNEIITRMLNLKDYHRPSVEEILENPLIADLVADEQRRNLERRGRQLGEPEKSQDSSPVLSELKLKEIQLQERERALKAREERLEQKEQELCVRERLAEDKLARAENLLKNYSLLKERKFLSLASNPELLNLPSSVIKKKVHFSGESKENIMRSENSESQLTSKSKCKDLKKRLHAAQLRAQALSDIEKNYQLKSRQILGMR

DAPK1 = molecular target: T3, DAPK1 (Homo sapiens, UniProt P53355); details: DAPK1; for % Enzyme Activity (relative to DMSO controls), Data 1: replicate Data 1; for % Enzyme Activity (relative to DMSO controls), Data 2: replicate Data 2
T3 construct: purchased ReactionBiology
T3 sequence (P53355 whole entry): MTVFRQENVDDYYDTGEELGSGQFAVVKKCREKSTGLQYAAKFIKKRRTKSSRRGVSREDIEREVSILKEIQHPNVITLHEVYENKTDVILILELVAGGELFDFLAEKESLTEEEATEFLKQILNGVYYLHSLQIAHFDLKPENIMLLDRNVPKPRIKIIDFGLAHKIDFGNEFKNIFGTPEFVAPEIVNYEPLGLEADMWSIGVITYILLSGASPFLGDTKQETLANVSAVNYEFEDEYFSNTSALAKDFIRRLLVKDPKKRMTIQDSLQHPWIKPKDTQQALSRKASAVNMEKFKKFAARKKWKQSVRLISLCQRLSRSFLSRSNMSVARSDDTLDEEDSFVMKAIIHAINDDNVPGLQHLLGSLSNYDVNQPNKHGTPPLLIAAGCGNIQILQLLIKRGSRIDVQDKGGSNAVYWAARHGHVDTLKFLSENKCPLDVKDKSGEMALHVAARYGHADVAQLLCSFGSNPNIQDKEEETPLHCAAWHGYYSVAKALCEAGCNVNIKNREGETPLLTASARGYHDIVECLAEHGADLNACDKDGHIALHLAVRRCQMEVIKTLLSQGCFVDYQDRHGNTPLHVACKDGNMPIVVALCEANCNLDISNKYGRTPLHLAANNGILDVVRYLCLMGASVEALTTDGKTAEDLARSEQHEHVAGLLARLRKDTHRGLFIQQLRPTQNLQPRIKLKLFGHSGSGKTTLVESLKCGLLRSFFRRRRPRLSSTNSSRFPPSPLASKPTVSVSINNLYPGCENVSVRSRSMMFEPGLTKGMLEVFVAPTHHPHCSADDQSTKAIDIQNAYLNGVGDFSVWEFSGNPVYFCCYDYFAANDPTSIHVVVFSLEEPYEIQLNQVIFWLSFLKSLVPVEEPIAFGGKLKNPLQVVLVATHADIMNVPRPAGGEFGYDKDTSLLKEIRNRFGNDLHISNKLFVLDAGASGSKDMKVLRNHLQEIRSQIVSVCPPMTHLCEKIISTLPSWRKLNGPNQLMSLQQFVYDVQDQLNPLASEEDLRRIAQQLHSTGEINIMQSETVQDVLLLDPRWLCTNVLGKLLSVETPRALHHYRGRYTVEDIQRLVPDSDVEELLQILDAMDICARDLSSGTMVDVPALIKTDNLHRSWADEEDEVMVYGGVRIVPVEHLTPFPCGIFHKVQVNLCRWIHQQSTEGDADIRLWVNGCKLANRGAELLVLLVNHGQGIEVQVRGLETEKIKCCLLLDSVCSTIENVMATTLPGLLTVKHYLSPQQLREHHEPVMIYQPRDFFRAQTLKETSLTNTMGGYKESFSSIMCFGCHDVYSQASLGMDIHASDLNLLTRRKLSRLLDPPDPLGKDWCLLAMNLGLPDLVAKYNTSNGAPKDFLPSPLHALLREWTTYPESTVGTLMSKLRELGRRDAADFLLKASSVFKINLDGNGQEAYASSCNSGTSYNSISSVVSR

EPHB4 = molecular target: T4, EPHB4 (Homo sapiens, UniProt P54760); details: EPHB4; for % Enzyme Activity (relative to DMSO controls), Data 1: replicate Data 1; for % Enzyme Activity (relative to DMSO controls), Data 2: replicate Data 2;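 on all read-outs here: EPHB4 was one of ten selected kinases in the screening panel, with enzyme activity expressed as a percentage of DMSO controls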
T4 construct: purchased ReactionBiology
T4 sequence (P54760 16-987): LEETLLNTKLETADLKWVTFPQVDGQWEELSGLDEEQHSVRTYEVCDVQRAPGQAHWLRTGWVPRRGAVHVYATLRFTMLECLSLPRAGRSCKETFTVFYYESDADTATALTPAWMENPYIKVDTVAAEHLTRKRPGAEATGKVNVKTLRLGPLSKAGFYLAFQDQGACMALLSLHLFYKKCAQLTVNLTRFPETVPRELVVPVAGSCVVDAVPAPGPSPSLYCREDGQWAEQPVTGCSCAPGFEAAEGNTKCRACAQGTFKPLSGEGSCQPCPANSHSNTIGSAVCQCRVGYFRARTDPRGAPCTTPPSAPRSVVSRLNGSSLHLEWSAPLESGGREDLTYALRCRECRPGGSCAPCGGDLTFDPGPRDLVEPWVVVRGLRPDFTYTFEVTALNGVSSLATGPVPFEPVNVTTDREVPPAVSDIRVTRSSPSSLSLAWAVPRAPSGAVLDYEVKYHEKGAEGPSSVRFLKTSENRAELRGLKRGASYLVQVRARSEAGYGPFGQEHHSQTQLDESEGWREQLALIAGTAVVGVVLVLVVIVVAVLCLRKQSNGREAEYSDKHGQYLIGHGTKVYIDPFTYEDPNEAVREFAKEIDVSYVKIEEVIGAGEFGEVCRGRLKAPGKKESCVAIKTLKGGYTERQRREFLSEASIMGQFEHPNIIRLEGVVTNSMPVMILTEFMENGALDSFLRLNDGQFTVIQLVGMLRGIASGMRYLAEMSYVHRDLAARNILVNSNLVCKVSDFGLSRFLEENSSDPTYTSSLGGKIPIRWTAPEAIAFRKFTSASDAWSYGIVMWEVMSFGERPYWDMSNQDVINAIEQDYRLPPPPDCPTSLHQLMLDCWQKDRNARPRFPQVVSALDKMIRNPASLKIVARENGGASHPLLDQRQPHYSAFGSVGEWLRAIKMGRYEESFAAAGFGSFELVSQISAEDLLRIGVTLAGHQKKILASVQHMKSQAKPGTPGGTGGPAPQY

VEGFR2 = VEGFR2 (Homo sapiens, UniProt P35968); parameters: purchased ReactionBiology; details: VEGFR2; for % Enzyme Activity (relative to DMSO controls), Data 1: replicate Data 1; for % Enzyme Activity (relative to DMSO controls), Data 2: replicate Data 2;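 on all read-outs here: VEGFR2 was one member of a ten-kinase screening panel testing marketed FDA-approved drugs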
Sequence of VEGFR2 (P35968 20-1356): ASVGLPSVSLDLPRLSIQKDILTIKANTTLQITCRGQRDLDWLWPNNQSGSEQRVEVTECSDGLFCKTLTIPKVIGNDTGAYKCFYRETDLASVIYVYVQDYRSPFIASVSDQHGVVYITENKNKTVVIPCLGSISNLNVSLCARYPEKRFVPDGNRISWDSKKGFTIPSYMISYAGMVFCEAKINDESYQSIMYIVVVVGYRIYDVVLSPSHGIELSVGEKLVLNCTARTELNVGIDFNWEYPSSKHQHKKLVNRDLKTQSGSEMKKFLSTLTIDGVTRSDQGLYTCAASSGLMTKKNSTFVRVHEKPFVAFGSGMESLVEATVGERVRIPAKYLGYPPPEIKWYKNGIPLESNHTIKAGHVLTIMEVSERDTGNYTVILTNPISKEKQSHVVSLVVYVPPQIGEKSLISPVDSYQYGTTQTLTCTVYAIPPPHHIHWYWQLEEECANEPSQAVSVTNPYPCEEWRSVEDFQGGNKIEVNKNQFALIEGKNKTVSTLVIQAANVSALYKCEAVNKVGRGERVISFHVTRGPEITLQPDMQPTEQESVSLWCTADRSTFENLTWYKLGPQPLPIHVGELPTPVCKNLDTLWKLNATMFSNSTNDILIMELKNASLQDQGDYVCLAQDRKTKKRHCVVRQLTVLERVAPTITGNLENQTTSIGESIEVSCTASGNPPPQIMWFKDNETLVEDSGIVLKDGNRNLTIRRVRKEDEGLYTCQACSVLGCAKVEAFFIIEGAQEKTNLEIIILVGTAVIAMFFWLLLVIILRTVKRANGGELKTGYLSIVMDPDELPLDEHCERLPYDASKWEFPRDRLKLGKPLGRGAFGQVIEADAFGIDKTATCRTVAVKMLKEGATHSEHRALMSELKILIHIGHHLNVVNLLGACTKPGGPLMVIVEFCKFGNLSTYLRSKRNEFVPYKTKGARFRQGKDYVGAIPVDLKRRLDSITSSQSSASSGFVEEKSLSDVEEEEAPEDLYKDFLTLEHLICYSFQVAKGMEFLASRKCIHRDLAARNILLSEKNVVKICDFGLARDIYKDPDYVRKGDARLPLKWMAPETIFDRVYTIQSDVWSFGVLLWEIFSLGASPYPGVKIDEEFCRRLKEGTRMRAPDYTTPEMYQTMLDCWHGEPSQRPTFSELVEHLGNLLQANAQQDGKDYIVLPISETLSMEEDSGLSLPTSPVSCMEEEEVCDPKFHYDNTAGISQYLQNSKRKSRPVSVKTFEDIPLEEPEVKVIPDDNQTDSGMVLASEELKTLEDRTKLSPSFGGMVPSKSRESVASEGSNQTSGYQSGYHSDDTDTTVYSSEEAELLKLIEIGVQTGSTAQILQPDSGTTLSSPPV

O=C(O)c1cc(-c2ccc(F)cc2F)ccc1O [Diflunisal]
% Enzyme Activity (relative to DMSO controls), Average (CK1d; 1 uM): 189.68%
% Enzyme Activity (relative to DMSO controls), Data 1 (CK1d; 1 uM): 106.89%
% Enzyme Activity (relative to DMSO controls), Data 2 (CK1d; 1 uM): 272.47%
% Enzyme Activity (relative to DMSO controls), Average (CK1d; 10 uM): 105.59%
% Enzyme Activity (relative to DMSO controls), Data 1 (CK1d; 10 uM): 104.76%
% Enzyme Activity (relative to DMSO controls), Data 2 (CK1d; 10 uM): 106.42%
% Enzyme Activity (relative to DMSO controls), Average (NEK2; 1 uM, Average): 92.13%
% Enzyme Activity (relative to DMSO controls), Data 1 (NEK2; 1 uM, replicate Data 1): 87.06%
% Enzyme Activity (relative to DMSO controls), Data 2 (NEK2; 1 uM, replicate Data 2): 97.20%
% Enzyme Activity (relative to DMSO controls), Average (NEK2; 10 uM, Average): 102.79%
% Enzyme Activity (relative to DMSO controls), Data 1 (NEK2; 10 uM, replicate Data 1): 100.11%
% Enzyme Activity (relative to DMSO controls), Data 2 (NEK2; 10 uM, replicate Data 2): 105.46%

N[C@H]1C(O)O[C@H](CO)[C@@H](O)[C@@H]1O (some centres unmarked) [Glucosamine]
% Enzyme Activity (relative to DMSO controls), Average (DAPK1; 1 uM): 102.43%
% Enzyme Activity (relative to DMSO controls), Data 1 (DAPK1; 1 uM): 102.25%
% Enzyme Activity (relative to DMSO controls), Data 2 (DAPK1; 1 uM): 102.61%
% Enzyme Activity (relative to DMSO controls), Average (DAPK1; 10 uM): 123.43%
% Enzyme Activity (relative to DMSO controls), Data 1 (DAPK1; 10 uM): 142.72%
% Enzyme Activity (relative to DMSO controls), Data 2 (DAPK1; 10 uM): 104.13%
% Enzyme Activity (relative to DMSO controls), Average (NEK2; 1 uM, Average): 82.84%
% Enzyme Activity (relative to DMSO controls), Data 1 (NEK2; 1 uM, replicate Data 1): 79.92%
% Enzyme Activity (relative to DMSO controls), Data 2 (NEK2; 1 uM, replicate Data 2): 85.75%
% Enzyme Activity (relative to DMSO controls), Average (NEK2; 10 uM, Average): 95.78%
% Enzyme Activity (relative to DMSO controls), Data 1 (NEK2; 10 uM, replicate Data 1): 90.86%
% Enzyme Activity (relative to DMSO controls), Data 2 (NEK2; 10 uM, replicate Data 2): 100.69%

O=C1c2cccc3c2[C@H](CCC3)CN1[C@@H]1CN2CCC1CC2 [Palonosetron]
% Enzyme Activity (relative to DMSO controls), Average (EPHB4; 1 uM): 97.11%
% Enzyme Activity (relative to DMSO controls), Data 1 (EPHB4; 1 uM): 97.96%
% Enzyme Activity (relative to DMSO controls), Data 2 (EPHB4; 1 uM): 96.26%
% Enzyme Activity (relative to DMSO controls), Average (EPHB4; 10 uM): 88.19%
% Enzyme Activity (relative to DMSO controls), Data 1 (EPHB4; 10 uM): 86.49%
% Enzyme Activity (relative to DMSO controls), Data 2 (EPHB4; 10 uM): 89.88%

CCc1nc(N)nc(N)c1-c1ccc(Cl)cc1 [Pyrimethamine]
% Enzyme Activity (relative to DMSO controls), Average (CK1d; 1 uM): 93.71%
% Enzyme Activity (relative to DMSO controls), Data 1 (CK1d; 1 uM): 95.24%
% Enzyme Activity (relative to DMSO controls), Data 2 (CK1d; 1 uM): 92.18%
% Enzyme Activity (relative to DMSO controls), Average (CK1d; 10 uM): 84.36%
% Enzyme Activity (relative to DMSO controls), Data 1 (CK1d; 10 uM): 85.89%
% Enzyme Activity (relative to DMSO controls), Data 2 (CK1d; 10 uM): 82.82%
% Enzyme Activity (relative to DMSO controls), Average (VEGFR2; 1 uM): 107.43%
% Enzyme Activity (relative to DMSO controls), Data 1 (VEGFR2; 1 uM): 104.33%
% Enzyme Activity (relative to DMSO controls), Data 2 (VEGFR2; 1 uM): 110.52%
% Enzyme Activity (relative to DMSO controls), Average (VEGFR2; 10 uM): 102.76%
% Enzyme Activity (relative to DMSO controls), Data 1 (VEGFR2; 10 uM): 106.39%
% Enzyme Activity (relative to DMSO controls), Data 2 (VEGFR2; 10 uM): 99.13%
% Enzyme Activity (relative to DMSO controls), Average (NEK2; 1 uM, Average): 106.09%
% Enzyme Activity (relative to DMSO controls), Data 1 (NEK2; 1 uM, replicate Data 1): 107.69%
% Enzyme Activity (relative to DMSO controls), Data 2 (NEK2; 1 uM, replicate Data 2): 104.49%
% Enzyme Activity (relative to DMSO controls), Average (NEK2; 10 uM, Average): 102.63%
% Enzyme Activity (relative to DMSO controls), Data 1 (NEK2; 10 uM, replicate Data 1): 102.17%
% Enzyme Activity (relative to DMSO controls), Data 2 (NEK2; 10 uM, replicate Data 2): 103.08%

Cc1nc(=O)c2cc(CN(C)c3ccc(C(=O)N[C@@H](CCC(=O)O)C(=O)O)s3)ccc2[nH]1 [Raltitrexed]
% Enzyme Activity (relative to DMSO controls), Average (VEGFR2; 1 uM): 107.68%
% Enzyme Activity (relative to DMSO controls), Data 1 (VEGFR2; 1 uM): 107.41%
% Enzyme Activity (relative to DMSO controls), Data 2 (VEGFR2; 1 uM): 107.94%
% Enzyme Activity (relative to DMSO controls), Average (VEGFR2; 10 uM): 105.59%
% Enzyme Activity (relative to DMSO controls), Data 1 (VEGFR2; 10 uM): 105%
% Enzyme Activity (relative to DMSO controls), Data 2 (VEGFR2; 10 uM): 106.17%
% Enzyme Activity (relative to DMSO controls), Average (NEK2; 1 uM, Average): 103.04%
% Enzyme Activity (relative to DMSO controls), Data 1 (NEK2; 1 uM, replicate Data 1): 108.18%
% Enzyme Activity (relative to DMSO controls), Data 2 (NEK2; 1 uM, replicate Data 2): 97.89%
% Enzyme Activity (relative to DMSO controls), Average (NEK2; 10 uM, Average): 95.93%
% Enzyme Activity (relative to DMSO controls), Data 1 (NEK2; 10 uM, replicate Data 1): 101.42%
% Enzyme Activity (relative to DMSO controls), Data 2 (NEK2; 10 uM, replicate Data 2): 90.43%

CCCc1nn(C)c2c(=O)[nH]c(-c3cc(S(=O)(=O)N4CCN(C)CC4)ccc3OCC)nc12 [Sildenafil]
% Enzyme Activity (relative to DMSO controls), Data 1 (CK1d; 1 uM): 107.72%
% Enzyme Activity (relative to DMSO controls), Data 1 (VEGFR2; 1 uM): 112.59%
% Enzyme Activity (relative to DMSO controls), Data 1 (VEGFR2; 10 uM): 111.96%
% Enzyme Activity (relative to DMSO controls), Data 1 (NEK2; 1 uM, replicate Data 1): 95.77%
% Enzyme Activity (relative to DMSO controls), Data 1 (NEK2; 10 uM, replicate Data 1): 85.23%

Nc1nc2[nH]cnc2c(=S)[nH]1 [Thioguanine]
% Enzyme Activity (relative to DMSO controls), Average (NEK2; 1 uM, Average): 92.40%
% Enzyme Activity (relative to DMSO controls), Data 1 (NEK2; 1 uM, replicate Data 1): 91.41%
% Enzyme Activity (relative to DMSO controls), Data 2 (NEK2; 1 uM, replicate Data 2): 93.38%
% Enzyme Activity (relative to DMSO controls), Average (NEK2; 10 uM, Average): 107.92%
% Enzyme Activity (relative to DMSO controls), Data 1 (NEK2; 10 uM, replicate Data 1): 110.57%
% Enzyme Activity (relative to DMSO controls), Data 2 (NEK2; 10 uM, replicate Data 2): 105.26%

Cc1ccc(C(=O)c2ccc(CC(=O)O)n2C)cc1 [Tolmetin]
% Enzyme Activity (relative to DMSO controls), Average (NEK2; compound at 1 uM, average of Data 1 and Data 2): 115.23%
% Enzyme Activity (relative to DMSO controls), Data 1 (NEK2; compound at 1 uM, replicate 1): 120.50%
% Enzyme Activity (relative to DMSO controls), Data 2 (NEK2; compound at 1 uM, replicate 2): 109.96%
% Enzyme Activity (relative to DMSO controls), Average (NEK2; compound at 10 uM, average of Data 1 and Data 2): 107.09%
% Enzyme Activity (relative to DMSO controls), Data 1 (NEK2; compound at 10 uM, replicate 1): 112.71%
% Enzyme Activity (relative to DMSO controls), Data 2 (NEK2; compound at 10 uM, replicate 2): 101.47%

NC[C@H]1CC[C@H](C(=O)O)CC1 [Tranexamic acid]
remaining activity at 1 µM (NEK2; 1 uM, Average, read-out: % Enzyme Activity (relative to DMSO controls), Average): 72.5%
remaining activity at 1 µM (NEK2; 1 uM, replicate Data 1, read-out: % Enzyme Activity (relative to DMSO controls), Data 1): 60.7%
remaining activity at 1 µM (NEK2; 1 uM, replicate Data 2, read-out: % Enzyme Activity (relative to DMSO controls), Data 2): 84.2%
remaining activity at 10 µM (NEK2; 10 uM, Average, read-out: % Enzyme Activity (relative to DMSO controls), Average): 85.3%
remaining activity at 10 µM (NEK2; 10 uM, replicate Data 1, read-out: % Enzyme Activity (relative to DMSO controls), Data 1): 72.1%
remaining activity at 10 µM (NEK2; 10 uM, replicate Data 2, read-out: % Enzyme Activity (relative to DMSO controls), Data 2): 98.5%
